The values that follow come from patent publication US20090326037A1 (priority 2005, published 2009).

Each structure is given as a SMILES string. Several values for one entry are separate records, joined by “and”; a condition that tells them apart may be missing. Identical values can stand only once. Like-named read-outs stand apart in the source and are kept apart here.

Series [1] has as its system influenza A/Singapore/1/57 virus. Put plainly: microbe, parasite or virus in culture. It counts as cell-based. The settings on record: for Percent of inhibition of OD 490: two values: A series; for suppression of reproduction: ten times greater amount (than 3.3 mg) of zanamivir or oseltamivir without the addition of arbidol.
Series [2] concerns avian influenza virus (H5N1). The class given is in vivo, white mice. The following applies: Oseltamivir 2.5 mg/kg alone (Arbidol 0 mg/kg), orally.
Series [3] deals with influenza virus A/PR/8/34. The class given is cell-based. The following applies: influenza virus A/PR/8/34, MDCK cells; concentration not given.
A short description of series [4]: Toxicity (lethal effect, LD50) in rats. It counts as in vivo. As for the experimental part: (§1) Determination of toxicity of 1-methyl-2-phenylthiomethyl-3-carbethoxy-5-oxy-6-bromindol sulfon as compared with arbidol.
(§2) The administration of the preparations was carried out endogastrically, the period of observation of the animals was 14 days.

A short description of series [5]: Toxicity (lethal effect, LD50) in mice. It counts as in vivo. The procedure: as §1, §2
The subject of another series is influenza virus H3N2. The class given is in vivo, mice.
The mark [6] stands for this setting: Influenza A virus, MDCK, read-out: percent of inhibition of viral reproduction.
[7] abbreviates: Dose 100 mg/kg, endogastrically, observation 14 days.
The mark [8] stands for this setting: Dose 250 mg/kg, endogastrically, observation 14 days.
The mark [9] stands for this setting: Dose 500 mg/kg, endogastrically, observation 14 days.
Setting [10] is: Dose 1000 mg/kg, endogastrically, observation 14 days.
Setting [11] is: Dose 3000 mg/kg, endogastrically, observation 14 days.
[12] abbreviates: Dose 5000 mg/kg, endogastrically, observation 14 days.
Where [13] appears, read: Dose 7500 mg/kg, endogastrically, observation 14 days.

For the compound `NC12CC3CC(CC(C3)C1)C2` [Amantadin], the “Percent of inhibition of OD 490” value is 50% and 30% in series [1] (Amantadin 5 μg/ml alone (A or D 0 μg/ml), D series, added 30 min prior to infection); 56% and 38% in series [1] (Amantadin 10 μg/ml alone (A or D 0 μg/ml), D series, added 30 min prior to infection).
As to `CCOC(=O)C1=C[C@@H](OC(CC)CC)[C@H](NC(C)=O)[C@@H](N)C1` [Oseltamivir], the “Surviving mice, %” value in series [2] is recorded as 60%. Besides, the “Percent of inhibition of OD 490” value in series [1] (Oseltamivir 0.4 μg alone (A or C 0 μg/ml), C series, added 2 hours after infection) was 36% and 18%; in series [1] (Oseltamivir 4.1 μg alone (A or C 0 μg/ml), C series, added 2 hours after infection), 37% and 20%; in series [1] (Oseltamivir 12.3 μg alone (A or C 0 μg/ml), C series, added 2 hours after infection) it was 48% and 34%; in series [1] (Oseltamivir 41 μg alone (A or C 0 μg/ml), C series, added 2 hours after infection), 52% and 36%. The compound further had a suppression of reproduction in series [1] of 50%.
With `CC(N)C12CC3CC(CC(C3)C1)C2` (centres unmarked) [Remantadin], the “Percent of inhibition of OD 490” value in series [1] (Remantadin 5 μg/ml alone (A or D 0 μg/ml), D series, added 30 min prior to infection) is 56% and 41%; in series [1] (Remantadin 10 μg/ml alone (A or D 0 μg/ml), D series, added 30 min prior to infection) it was 59% and 40%.
On to `NC(=O)c1ncn([C@@H]2O[C@H](CO)[C@@H](O)[C@H]2O)n1` [Ribavirin], for which, in series [1] (setting [6]), the inhibition at 1 µg/mL turned out to be 5%, the inhibition at 3 µg/mL was determined as 25%, the inhibition at 10 µg/mL stood at 30% and the inhibition at 15 µg/mL came out at 38%.
In the case of `CCOC(=O)c1c(CS(=O)(=O)c2ccccc2)n(C)c2cc(Br)c(O)cc12` [Sulfon, 1-methyl-2-phenylthiomethyl-3-carbethoxy-5-oxy-6-bromindol sulfon], the “Percent of suppression of virus reproduction” value in series [3] is listed as 75%. Moreover, the “Lethal effect upon administration to rats” value was 0/6 in series [4] (setting [7]); 0/6 in series [4] (setting [8]); 0/6 in series [4] (setting [9]); 0/6 in series [4] (setting [10]); 2/6 in series [4] (setting [11]); 4/6 in series [4] (setting [12]). The “Lethal effect upon administration to rats” value in series [4] (setting [13]) was 6/6. For the same compound, the median lethal dose (LD50) at 14 days stood at 5350 ± 250 mg/kg in series [4] (rat, in vivo, oral, rats, endogastrically, observation 14 days) and 3600 ± 180 mg/kg in series [5] (mouse, in vivo, oral, mice, endogastrically, observation 14 days). Also, the “LD50 relative to arbidol” value in series [4] (rats, sulfon LD50 versus arbidol LD50) is recorded as 3 times; in series [5] (mice, sulfon LD50 versus arbidol LD50), 4 times. For the same compound, the “Lethal effect upon administration to mice” value in series [5] (setting [7]) was 0/6; in series [5] (setting [8]), 0/6; in series [5] (setting [9]), 0/6; in series [5] (setting [10]) it was 0/6; in series [5] (setting [11]), 2/6; in series [5] (setting [12]), 4/6. In addition, in series [5] (setting [13]), the “Lethal effect upon administration to mice” value is 6/6. Also, in series [5] (Table 5 (mice and rats), endogastrically), the “toxicity as compared with arbidol” value is given as “significantly less toxic than arbidol”. Besides, the “Percent of surviving mice” value in the series with influenza virus H3N2 (Concentration 15) was 90%; in the series with influenza virus H3N2 (Concentration 30), 70%; in the series with influenza virus H3N2 (Concentration 100), 40% and 50% and 60%. In the series with influenza virus H3N2 (mouse, in vivo), the “antiviral action in vivo as compared with arbidol” value is recorded as “comparable with the action of arbidol”.
Regarding `CC(=O)N[C@H]1[C@H]([C@H](O)[C@H](O)CO)OC(C(=O)O)=C[C@@H]1N=C(N)N` [Zanamivir], the “Percent of inhibition of OD 490” value in series [1] (Zanamivir 0.3 μg alone (A or B 0 μg/ml), B series, added 2 hours after infection) is 27% and 15%; in series [1] (Zanamivir 1 μg alone (A or B 0 μg/ml), B series, added 2 hours after infection) it was 29% and 15%; in series [1] (Zanamivir 3.3 μg alone (A or B 0 μg/ml), B series, added 2 hours after infection), 36% and 20%; in series [1] (Zanamivir 10 μg alone (A or B 0 μg/ml), B series, added 2 hours after infection), 43% and 22%; in series [1] (Zanamivir 33 μg alone (A or B 0 μg/ml), B series, added 2 hours after infection) it was 49% and 28%. In series [1], the suppression of reproduction was 50%.

What is called inhibition is the share of the control response that was lost under treatment. In general, LD50 refers to the dose expected to kill half of the subjects tested. A high value points to a less toxic substance.
